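Step 1: Grow cells in 96-well plates. Step 2: Expose to compound for 48 hours at 5 concentrations. Step 3: Interpolate endpoints linearly; if unreached, use highest concentration. The concentration for 50% growth inhibition is given as GI50. TGI marks complete inhibition of growth.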
Columns and labels:
Assay in all cases: DTP human tumour cell line panel, 48 h
786-0 renal = system: 786-0 renal
A498 renal = system: A498 renal
A549 NSCLC = system: A549 NSCLC
ACHN renal = system: ACHN renal
BT-549 breast = system: BT-549 breast
CAKI-1 renal = system: CAKI-1 renal
CCRF-CEM leukemia = system: CCRF-CEM leukemia
COLO 205 colon = system: COLO 205 colon
DU-145 prostate = system: DU-145 prostate
EKVX NSCLC = system: EKVX NSCLC
HCC-2998 colon = system: HCC-2998 colon
HCT-116 colon = system: HCT-116 colon
HCT-15 colon = system: HCT-15 colon
HOP-62 NSCLC = system: HOP-62 NSCLC
HOP-92 NSCLC = system: HOP-92 NSCLC
HS 578T breast = system: HS 578T breast
HT29 colon = system: HT29 colon
IGROV1 ovarian = system: IGROV1 ovarian
K-562 leukemia = system: K-562 leukemia
KM12 colon = system: KM12 colon
LOX IMVI melanoma = system: LOX IMVI melanoma
M14 melanoma = system: M14 melanoma
MALME-3M melanoma = system: MALME-3M melanoma
MDA-MB-231 breast = system: MDA-MB-231 breast
MDA-MB-435 = system: MDA-MB-435
MDA-N = system: MDA-N
MOLT-4 leukemia = system: MOLT-4 leukemia
NCI-H226 lung = system: NCI-H226 lung
NCI-H23 lung = system: NCI-H23 lung
NCI-H460 lung = system: NCI-H460 lung
NCI-H522 lung = system: NCI-H522 lung
NCI/ADR-RES ovarian = system: NCI/ADR-RES ovarian
OVCAR-3 ovarian = system: OVCAR-3 ovarian
OVCAR-4 ovarian = system: OVCAR-4 ovarian
OVCAR-5 ovarian = system: OVCAR-5 ovarian
OVCAR-8 ovarian = system: OVCAR-8 ovarian
PC-3 prostate = system: PC-3 prostate
RPMI-8226 leukemia = system: RPMI-8226 leukemia
SF-268 CNS = system: SF-268 CNS
SF-295 CNS = system: SF-295 CNS
SF-539 CNS = system: SF-539 CNS
SK-MEL-2 melanoma = system: SK-MEL-2 melanoma
SK-MEL-28 melanoma = system: SK-MEL-28 melanoma
SK-MEL-5 melanoma = system: SK-MEL-5 melanoma
SN12C renal = system: SN12C renal
SNB-19 CNS = system: SNB-19 CNS
SNB-75 CNS = system: SNB-75 CNS
SR leukemia = system: SR leukemia
SW-620 colon = system: SW-620 colon
TK-10 renal = system: TK-10 renal
U251 CNS = system: U251 CNS
UACC-257 melanoma = system: UACC-257 melanoma
UACC-62 melanoma = system: UACC-62 melanoma
UO-31 renal = system: UO-31 renal
HL-60(TB) leukemia = system: HL-60(TB) leukemia
MCF7 breast = system: MCF7 breast
RXF 393 renal = system: RXF 393 renal
SK-OV-3 ovarian = system: SK-OV-3 ovarian
T-47D breast = system: T-47D breast

Nc1ccc(-c2nc3ccc(F)cc3s2)cc1 was tested, and the TGI (786-0 renal) was over 100 µM, the TGI (A498 renal) was 80.3 µM and the TGI (A549 NSCLC) was over 100 µM. It also gave a TGI (ACHN renal) of 66.6 µM, a TGI (BT-549 breast) of over 100 µM and a TGI (CAKI-1 renal) of 95.5 µM. For the same compound, the TGI (CCRF-CEM leukemia) was over 100 µM, the TGI (COLO 205 colon) was 33.2 µM and the TGI (DU-145 prostate) was 98.6 µM. For the same compound, the TGI (EKVX NSCLC) was over 100 µM, the GI50 (HCC-2998 colon) was 17.8 µM and the TGI (HCC-2998 colon) was 45.3 µM. The TGI (HCT-116 colon) was over 100 µM, the TGI (HCT-15 colon) was over 100 µM and the TGI (HOP-62 NSCLC) was 90.8 µM. The TGI (HOP-92 NSCLC) was over 100 µM, the TGI (HS 578T breast) was over 100 µM and the TGI (HT29 colon) was over 100 µM. It also gave a GI50 (IGROV1 ovarian) of 21.3 µM, a TGI (IGROV1 ovarian) of 71.9 µM and a TGI (K-562 leukemia) of over 100 µM. For the same compound, the TGI (KM12 colon) was 64.3 µM, the TGI (LOX IMVI melanoma) was over 100 µM and the TGI (M14 melanoma) was over 100 µM. The TGI (MALME-3M melanoma) was over 100 µM, the TGI (MDA-MB-231 breast) was 64 µM and the TGI (MDA-MB-435) was 70.4 µM. It also gave a TGI (MDA-N) of over 100 µM, a TGI (MOLT-4 leukemia) of over 100 µM and a GI50 (NCI-H226 lung) of 47 µM. For the same compound, the TGI (NCI-H226 lung) was over 100 µM, the TGI (NCI-H23 lung) was over 100 µM and the GI50 (NCI-H460 lung) was 24.4 µM. It also gave a TGI (NCI-H460 lung) of over 100 µM, a TGI (NCI-H522 lung) of over 100 µM and a TGI (NCI/ADR-RES ovarian) of over 100 µM. For the same compound, the TGI (OVCAR-3 ovarian) was 64.4 µM, the GI50 (OVCAR-4 ovarian) was 23.1 µM and the TGI (OVCAR-4 ovarian) was over 100 µM. It also gave a GI50 (OVCAR-5 ovarian) of 27.2 µM, a TGI (OVCAR-5 ovarian) of 73.6 µM and a TGI (OVCAR-8 ovarian) of over 100 µM. It also gave a TGI (PC-3 prostate) of 92.6 µM, a TGI (RPMI-8226 leukemia) of 91.7 µM and a TGI (SF-268 CNS) of over 100 µM. The TGI (SF-295 CNS) was 60.7 µM, the TGI (SF-539 CNS) was over 100 µM and the TGI (SK-MEL-2 melanoma) was 39.6 µM. For the same compound, the TGI (SK-MEL-28 melanoma) was over 100 µM, the TGI (SK-MEL-5 melanoma) was 37.8 µM and the TGI (SN12C renal) was over 100 µM. For the same compound, the TGI (SNB-19 CNS) was over 100 µM, the TGI (SNB-75 CNS) was 95 µM and the TGI (SR leukemia) was over 100 µM. It also gave a TGI (SW-620 colon) of over 100 µM, a TGI (TK-10 renal) of 78.8 µM and a TGI (U251 CNS) of over 100 µM. For the same compound, the TGI (UACC-257 melanoma) was over 100 µM, the TGI (UACC-62 melanoma) was 31.3 µM and the TGI (UO-31 renal) was over 100 µM.

In the case of [N-]=[N+]=NC[C@H]1OCO[C@H](CN=[N+]=[N-])[C@H]2OCCOCCOc3ccccc3OCCOCCO[C@@H]21, the TGI (786-0 renal) is reported as over 100 µM, the TGI (A549 NSCLC) is reported as over 100 µM and the TGI (BT-549 breast) is reported as over 100 µM. For the same compound, the TGI (CAKI-1 renal) was over 100 µM, the TGI (CCRF-CEM leukemia) was over 100 µM and the TGI (COLO 205 colon) was over 100 µM. The TGI (DU-145 prostate) was over 100 µM, the TGI (EKVX NSCLC) was over 100 µM and the TGI (HCC-2998 colon) was over 100 µM. It also gave a TGI (HCT-116 colon) of over 100 µM, a TGI (HCT-15 colon) of over 100 µM and a TGI (HL-60(TB) leukemia) of over 100 µM. For the same compound, the TGI (HOP-62 NSCLC) was over 100 µM, the TGI (HS 578T breast) was over 100 µM and the TGI (HT29 colon) was over 100 µM. The TGI (IGROV1 ovarian) was over 100 µM, the TGI (K-562 leukemia) was over 100 µM and the TGI (KM12 colon) was over 100 µM. It also gave a TGI (LOX IMVI melanoma) of over 100 µM, a TGI (M14 melanoma) of over 100 µM and a TGI (MALME-3M melanoma) of over 100 µM. The TGI (MCF7 breast) was over 100 µM, the TGI (MDA-MB-231 breast) was over 100 µM and the TGI (MDA-MB-435) was over 100 µM. For the same compound, the TGI (MDA-N) was over 100 µM, the TGI (MOLT-4 leukemia) was over 100 µM and the TGI (NCI-H226 lung) was over 100 µM. The TGI (NCI-H23 lung) was over 100 µM, the TGI (NCI-H460 lung) was over 100 µM and the TGI (NCI-H522 lung) was over 100 µM. The TGI (NCI/ADR-RES ovarian) was over 100 µM, the TGI (OVCAR-3 ovarian) was over 100 µM and the TGI (OVCAR-4 ovarian) was over 100 µM. For the same compound, the TGI (OVCAR-8 ovarian) was over 100 µM, the TGI (PC-3 prostate) was over 100 µM and the TGI (RPMI-8226 leukemia) was over 100 µM. For the same compound, the TGI (RXF 393 renal) was over 100 µM, the TGI (SF-268 CNS) was over 100 µM and the TGI (SF-295 CNS) was over 100 µM. It also gave a TGI (SF-539 CNS) of over 100 µM, a TGI (SK-MEL-2 melanoma) of over 100 µM and a TGI (SK-MEL-28 melanoma) of over 100 µM. The TGI (SK-MEL-5 melanoma) was over 100 µM, the TGI (SK-OV-3 ovarian) was over 100 µM and the TGI (SN12C renal) was over 100 µM. It also gave a TGI (SNB-19 CNS) of over 100 µM, a TGI (SNB-75 CNS) of over 100 µM and a TGI (SW-620 colon) of over 100 µM. For the same compound, the TGI (T-47D breast) was over 100 µM, the TGI (TK-10 renal) was over 100 µM and the TGI (U251 CNS) was over 100 µM. It also gave a TGI (UACC-257 melanoma) of over 100 µM, a TGI (UACC-62 melanoma) of over 100 µM and a TGI (UO-31 renal) of over 100 µM.
